Results on two compounds are retold here after patent US11370795B2, “Process for the synthesis of 6-[(3S,4S)-4-methyl-1-(pyrimidin-2-ylmethyl)pyrrolidin-3-yl]-3-tetrahydropyran-4-yl-7H-imidazo[1,5-a]pyrazin-8-one” (Imara Inc., priority 2017, dated 2022).

A short description of data set [1]: Blood Brain Barrier penetration (plasma and brain concentration). Type of data set: in vivo.
Data set [2] is described as follows: Stability study of drug substance in sealed pouches. Type of data set: physicochemical. The note with it: ambient temperature and 40° C.-45° C. (no humidity control), 3-month period, polyethylene pouches in aluminum pouch. How it is done:
A stability study has been completed on Compound P3.1. Samples of Compound P3.1 were aliquoted into double-walled polyethylene pouches, which were tied off and then heat-sealed in an aluminum pouch. Samples were stored at ambient temperature and at 40° C.-45° C. (no humidity control) with testing performed over a 3-month period.

`O=c1[nH]c(CN2CC(Oc3cccnc3)C2)cn2c(C3CCOCC3)ncc12` [Compound (P2)]: in data set [1] (brain, 120 min), the “Brain concentration after 120 minutes” value is listed as “detection limit”.
Take `C[C@@H]1CN(Cc2ncccn2)C[C@H]1c1cn2c(C3CCOCC3)ncc2c(=O)[nH]1` [Compound P3.1, 6-[(3S,4S)-4-methyl-1-(pyrimidin-2-ylmethyl)pyrrolidin-3-yl]-3-tetrahydropyran-4-yl-7H-imidazo[1,5-a]pyrazin-8-one]: in data set [2], the “Changes to appearance or purity of the material” value was “no changes to appearance or purity”. For the same compound, in data set [1] (brain/plasma, 30 min, read-out: Brain/Plasma ratio after 30 minutes), the Kp at 0.5 h came out at 0.04. Further, the Kp at 2 h in data set [1] (brain/plasma, 120 min, read-out: Brain/Plasma ratio after 120 minutes) is 0.03.
